Tested on: pseudotyped viruses harboring glycoprotein of vesicular stomatitis virus (VSV)
Assay type: cell-based

Structure (SMILES)	luciferase activity (infection by VSV-G pseudotyped viruses)
Fc1ccc([C@@H]2CCNC[C@H]2COc2ccc3c(c2)OCO3)cc1 [Paroxetine]	remained ineffective
CN(C)CCCN1c2ccccc2CCc2ccc(Cl)cc21 [Clomipramine]	reduced the infection
COCCCC/C(=N\OCCN)c1ccc(C(F)(F)F)cc1 [Fluvoxamine]	remained ineffective
CNCCC(Oc1ccc(C(F)(F)F)cc1)c1ccccc1 (stereo not shown) [Fluoxetine]	reduced the infection
CN(C)CCCC1(c2ccc(F)cc2)OCc2cc(C#N)ccc21 (stereo not shown) [Citalopram]	remained ineffective
CCOc1ccccc1OC(c1ccccc1)C1CNCCO1 (stereo not shown) [Reboxetine]	reduced the infection
OCCN1CCN(CCC=C2c3ccccc3Sc3ccc(C(F)(F)F)cc32)CC1 [Flupenthixol]	reduced the infection
